Results published in patent publication US10793576B2, “Compound used as Bruton's tyrosine kinase inhibitor and preparation method and application thereof” (Chengdu Brilliant Pharmaceutical Co., LTD., priority 2017, dated 2020).

Molecular target: BTK kinase (Homo sapiens (Human), UniProt Q06187)
Experiment: In vitro assay for the inhibition of BTK kinase activity (Mobility-Shift Assay)
Format: biochemical
Text: Mobility-Shift Assay, which is microfluidic chip technology, applies the basic concept of capillary electrophoresis to microfluidic environments. The substrate used for the experiment is a polypeptide with a fluorescent label. Under the action of enzyme in the reaction system, the substrate is transformed into a product, and the charge the substrate carries also changes accordingly. The use of the charge difference between the substrate and the product involved in Mobility-Shift Assay achieves the separating of the two, and they are tested respectively. The test results are expressed by conversion rates.
(3) 100% DMSO was added to the positive control well and the negative control well, respectively;

Sequence of BTK kinase (Q06187 whole entry): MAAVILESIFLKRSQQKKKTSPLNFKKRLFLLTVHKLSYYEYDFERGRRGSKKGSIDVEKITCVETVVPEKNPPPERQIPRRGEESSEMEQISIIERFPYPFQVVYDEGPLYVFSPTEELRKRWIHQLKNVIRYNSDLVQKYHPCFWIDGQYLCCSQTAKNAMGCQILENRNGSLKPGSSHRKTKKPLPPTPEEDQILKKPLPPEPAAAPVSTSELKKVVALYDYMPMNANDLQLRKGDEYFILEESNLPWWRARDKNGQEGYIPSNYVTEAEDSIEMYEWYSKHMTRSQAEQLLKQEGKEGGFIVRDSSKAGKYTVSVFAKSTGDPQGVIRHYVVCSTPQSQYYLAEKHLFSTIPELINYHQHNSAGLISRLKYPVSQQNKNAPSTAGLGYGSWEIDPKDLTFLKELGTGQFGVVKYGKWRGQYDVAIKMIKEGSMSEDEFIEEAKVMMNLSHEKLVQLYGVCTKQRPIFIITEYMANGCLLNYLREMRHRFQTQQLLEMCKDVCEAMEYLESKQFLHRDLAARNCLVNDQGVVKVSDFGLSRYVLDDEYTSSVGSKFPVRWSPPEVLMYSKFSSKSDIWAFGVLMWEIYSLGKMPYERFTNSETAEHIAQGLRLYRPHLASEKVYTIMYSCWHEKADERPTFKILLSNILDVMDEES

Row | Compound | IC50
1 | C=CC(=O)N1C[C@@H]2C[C@]1(c1nc(-c3ccc(C(=O)Nc4ccccn4)cc3)c3c(N)nccn13)CCO2 [Example 7] | 155 nM
2 | CC#CC(=O)N1C[C@@H]2C[C@]1(c1nc(-c3ccc(C(=O)Nc4ccccn4)cc3)c3c(N)nccn13)CCO2 [Example 8] | 197 nM
3 | C=CC(=O)N1CC2C[C@H]1C(c1nc(-c3ccc(C(=O)Nc4ccccn4)cc3)c3c(N)nccn13)N2 (stereo partly drawn) [Example 19] | 400 nM
4 | C=CC(=O)N1CC2C[C@H]1C(c1nc(-c3ccc(C(=O)Nc4ccccn4)cc3)c3c(N)nccn13)N2C(C)=O (stereo partly drawn) [Example 20] | 372 nM
5 | CC#CC(=O)N1CC2C[C@H]1C(c1nc(-c3ccc(C(=O)Nc4ccccn4)cc3)c3c(N)nccn13)N2 (stereo partly drawn) [Example 21] | 672 nM
6 | C=CC(=O)N1C(c2nc(-c3ccc(C(=O)Nc4ccccn4)cc3)c3c(N)nccn23)CC2CC21 (stereo not drawn) [Example 24] | 176 nM
7 | CC#CC(=O)N1C(c2nc(-c3ccc(C(=O)Nc4ccccn4)cc3)c3c(N)nccn23)CC2CC21 (stereo not drawn) [Example 25] | 342 nM
8 | C=CC(=O)N1CCC2(CC1)CC(c1nc(-c3ccc(C(=O)Nc4ccccn4)cc3)c3c(N)nccn13)CO2 (stereo not drawn) [Example 26] | 477 nM
9 | CC#CC(=O)N1CCC2(CC1)CC(c1nc(-c3ccc(C(=O)Nc4ccccn4)cc3)c3c(N)nccn13)CO2 (stereo not drawn) [Example 27] | 673 nM
10 | C=CC(=O)NC12CC3CC(C1)CC(c1nc(-c4ccc(C(=O)Nc5ccccn5)cc4)c4c(N)nccn14)(C3)C2 [Example 28] | 124 nM
11 | CC#CC(=O)NC12CC3CC(C1)CC(c1nc(-c4ccc(C(=O)Nc5ccccn5)cc4)c4c(N)nccn14)(C3)C2 [Example 29] | 216 nM
12 | C=CC(=O)N1CCC2(CC2c2nc(-c3ccc(C(=O)Nc4ccccn4)cc3)c3c(N)nccn23)C1 (stereo not drawn) [Example 30] | 724 nM
13 | CC#CC(=O)N1CCC2(CC2c2nc(-c3ccc(C(=O)Nc4ccccn4)cc3)c3c(N)nccn23)C1 (stereo not drawn) [Example 31] | 736 nM
14 | CC#CC(=O)N1CCC2CC21c1nc(-c2ccc(C(=O)Nc3ccccn3)cc2)c2c(N)nccn12 (stereo not drawn) [Example 33] | 94 nM

Results, then the compound that gave them:

Row | IC50 | Compound
15 | 66 nM | C=CC(=O)N1CC2CCC2(c2nc(-c3ccc(C(=O)Nc4ccccn4)cc3)c3c(N)nccn23)C1 (stereo not drawn) [Example 34]
16 | 67 nM | CC#CC(=O)N1CC2CCC2(c2nc(-c3ccc(C(=O)Nc4ccccn4)cc3)c3c(N)nccn23)C1 (stereo not drawn) [Example 35]
17 | 93 nM | C=CC(=O)N1CC2(CCNCC2)CC1c1nc(-c2ccc(C(=O)Nc3ccccn3)cc2)c2c(N)nccn12 (stereo not drawn) [Example 36]
18 | 46 nM | CC#CC(=O)N1CC2(CCNCC2)CC1c1nc(-c2ccc(C(=O)Nc3ccccn3)cc2)c2c(N)nccn12 (stereo not drawn) [Example 37]
19 | 66 nM | C=CC(=O)N1CC2COC[C@]2(c2nc(-c3ccc(C(=O)Nc4ccccn4)cc3)c3c(N)nccn23)C1 (stereo partly drawn) [Example 38]
20 | 68 nM | CC#CC(=O)N1CC2COC[C@]2(c2nc(-c3ccc(C(=O)Nc4ccccn4)cc3)c3c(N)nccn23)C1 (stereo partly drawn) [Example 39]
21 | 97 nM | CC#CC(=O)N1CC2(CC2)C[C@H]1c1nc(-c2ccc(C(=O)Nc3cc(C(F)(F)F)ccn3)cc2)c2c(N)nccn12 [Example 40, (S)-4-(8-amino-3-(5-(but-2-ynoyl)-5-azaspiro[2.4]heptan-6-yl)imidazo[1,5-a]pyrazin-1-yl 1)-N-(4-(trifluoromethyl)pyridin-2-yl)benzamide]
22 | 52 nM | C=CC(=O)N1CC2(CC2)C[C@H]1c1nc(-c2ccc(C(=O)Nc3cc(C(F)(F)F)ccn3)cc2)c2c(N)nccn12 [Example 41, (S)-4-(3-(5-acryloyl-5-azaspiro[2.4]heptan-6-yl)-8-aminoimidazo[1,5-a]pyrazin-1-yl)-N-(4-(trifluoromethyl)pyridin-2-yl)benzamide]
23 | 69 nM | C=CC(=O)N1C(c2nc(-c3ccc(C(=O)Nc4cc(C(F)(F)F)ccn4)cc3)c3c(N)nccn23)CC2CC21 (stereo not drawn) [Example 50]
24 | 54 nM | CC#CC(=O)N1C(c2nc(-c3ccc(C(=O)Nc4cc(C(F)(F)F)ccn4)cc3)c3c(N)nccn23)CC2CC21 (stereo not drawn) [Example 51]
